≈ marks a conversion by molar mass, not a printed value. Like-named read-outs stand apart in the source and are kept apart here.
What was measured:
C. striatum NCTC 764 [1] = test: MIC assay; format: cell-based, Corynebacterium striatum; conditions: triplicate
Excerpt: (a) staphylococci. The Staphylococcus aureus strain used was ATCC 29213. S. aureus and other staphylococci are common causes of a wide range of skin, skin structure and wound infections; S. aureus is also known to exacerbate eczema. The ATCC 29213 strain is known to be susceptible to beta-lactam antibiotics such as methicillin. The Staphylococcus epidermidis strain used was NCTC 11047. Staph. epidermidis forms part of the resident flora of skin and is an opportunistic pathogen which can cause biofilms to grow for instance on plastic surgical implants such as catheters. Unless otherwise stated, the staphylococci were cultured and maintained on Mueller-Hinton Medium (agar and broth) at pH 7.2; cultures were incubated aerobically at 37° C. for 19-20 hours, at pH 7 (±0.2). (b) C. striatum NCTC 764. Corynebacterium striatum is closely related to organisms (aerobic diphtheroids of the genus Corynebacterium) that cause body odour. It was cultured and maintained on Mueller-Hinton medium (agar and broth). All cultures were incubated aerobically at 37° C. for 72 hours, at pH 7 (±0.2). (c) streptococci. The strains tested were S. mutans ATCC 25175 and S. pyogenes ATCC 12344. S. mutans is a Gram-positive, microaerophilic bacterium which plays a significant role in dental caries and in infective endocarditis. Streptococcus pyogenes is associated with skin, soft tissue, burn and wound infections. S. mutans was cultured and maintained on Wilkins-Chalgren Anaerobe medium+1 g/L glucose (agar and broth); it was incubated in air at 37° C. for 48 hours, at pH 7 (±0.2) with 5% carbon dioxide. […]
This is a standard international method for quantitatively assessing the antimicrobial activity of a compound in a liquid medium. […]
The wells were inoculated with a liquid suspension of freshly grown micro-organism and incubated under the conditions described above. […] The MIC value was recorded as the lowest concentration of test compound required to inhibit microbial growth, ie the lowest concentration for which the liquid in the well remained clear. […]

C. striatum NCTC 764 [2] = test: MBC assay; format: cell-based, Corynebacterium striatum; conditions: triplicate
Excerpt: (a) staphylococci. The Staphylococcus aureus strain used was ATCC 29213. S. aureus and other staphylococci are common causes of a wide range of skin, skin structure and wound infections; S. aureus is also known to exacerbate eczema. The ATCC 29213 strain is known to be susceptible to beta-lactam antibiotics such as methicillin. The Staphylococcus epidermidis strain used was NCTC 11047. Staph. epidermidis forms part of the resident flora of skin and is an opportunistic pathogen which can cause biofilms to grow for instance on plastic surgical implants such as catheters. Unless otherwise stated, the staphylococci were cultured and maintained on Mueller-Hinton Medium (agar and broth) at pH 7.2; cultures were incubated aerobically at 37° C. for 19-20 hours, at pH 7 (±0.2). (b) C. striatum NCTC 764. Corynebacterium striatum is closely related to organisms (aerobic diphtheroids of the genus Corynebacterium) that cause body odour. It was cultured and maintained on Mueller-Hinton medium (agar and broth). All cultures were incubated aerobically at 37° C. for 72 hours, at pH 7 (±0.2). (c) streptococci. The strains tested were S. mutans ATCC 25175 and S. pyogenes ATCC 12344. S. mutans is a Gram-positive, microaerophilic bacterium which plays a significant role in dental caries and in infective endocarditis. Streptococcus pyogenes is associated with skin, soft tissue, burn and wound infections. S. mutans was cultured and maintained on Wilkins-Chalgren Anaerobe medium+1 g/L glucose (agar and broth); it was incubated in air at 37° C. for 48 hours, at pH 7 (±0.2) with 5% carbon dioxide. S. pyogenes was cultured and maintained on Mueller-Hinton medium (broth and agar) and was incubated under the same conditions as S. mutans.
This assay, normally carried out after an MIC assay, determines the minimum concentration of a compound that is lethal to the micro-organism being tested.
These samples were then individually sub-cultured on antibiotic-free agar medium, under the incubation conditions described above. Following incubation they were examined visually for microbial growth. […]

S. mutans ATCC 25175 = test: Disc diffusion assay (DDA); format: cell-based, Streptococcus mutans; conditions: 200 μg per disc, 48 hours at 37° C., 5% carbon dioxide, single plates
Excerpt: (a) staphylococci. The Staphylococcus aureus strain used was ATCC 29213. S. aureus and other staphylococci are common causes of a wide range of skin, skin structure and wound infections; S. aureus is also known to exacerbate eczema. The ATCC 29213 strain is known to be susceptible to beta-lactam antibiotics such as methicillin. The Staphylococcus epidermidis strain used was NCTC 11047. Staph. epidermidis forms part of the resident flora of skin and is an opportunistic pathogen which can cause biofilms to grow for instance on plastic surgical implants such as catheters. Unless otherwise stated, the staphylococci were cultured and maintained on Mueller-Hinton Medium (agar and broth) at pH 7.2; cultures were incubated aerobically at 37° C. for 19-20 hours, at pH 7 (±0.2). (b) C. striatum NCTC 764. Corynebacterium striatum is closely related to organisms (aerobic diphtheroids of the genus Corynebacterium) that cause body odour. It was cultured and maintained on Mueller-Hinton medium (agar and broth). All cultures were incubated aerobically at 37° C. for 72 hours, at pH 7 (±0.2). (c) streptococci. The strains tested were S. mutans ATCC 25175 and S. pyogenes ATCC 12344. […] The diameter of this zone of “inhibition” was measured using a ProtoCOL™ automated zone sizer (Synbiosis, Cambridge, UK). […]

Question: For `CC(=O)c1c([O-])c(C)c([O-])c2c1OC1=CC(=O)C(C(C)=O)C(=O)C12C.[Cu+2]` (stereo not drawn) [Copper usnate, copper (II) usnate], which MIC (C. striatum NCTC 764 [1]) is on record?
Answer: 3.9 µg/mL

Question: What about the MBC (C. striatum NCTC 764 [2]) of the same molecule?
Answer: 62.5 µg/mL

Question: What about the DDA zone diameter (S. mutans ATCC 25175) of the same molecule?
Answer: 32.4 mm

Question: What does the source list for `CC(=O)c1c(O)c(C)c(O)c2c1OC1=CC(=O)C(C(C)=O)C(=O)C12C` (stereo not drawn) [Usnic acid, 2,6-diacetyl-7,9-dihydroxy-8,9b-dimethyl-1,3(2H,9bh)-dibenzofurandione]?
Answer: MIC (C. striatum NCTC 764 [1]; Corynebacterium striatum, NCTC764, read-out: MIC): 7.8 µg/mL (≈ 22.7 µM); MBC (C. striatum NCTC 764 [2]; Corynebacterium striatum, NCTC764, read-out: MBC): 62.5 µg/mL (≈ 182 µM); zone of inhibition at 200 µg/disc (S. mutans ATCC 25175; Streptococcus mutans, ATCC25175, read-out: DDA zone diameter): 31.2 mm

— US20120270935A1, “FORMULATIONS” (priority 2009, published 2012)
